Tests used:
human podocytes [1] = assay: Human podocytes exposed to DKD+ patient sera: immunofluorescence staining (filipin, phospho-caveolin, F-actin, cell blebbing); assay type: cell-based
Description: We used a previously established cell-based assay in which differentiated human podocytes are exposed to 4% patient sera for 24 hours to identify new pathways and targets in DKD. […] Excessive cholesterol deposition has indeed been described in glomeruli of rodent models of T1D and T2D and may contribute to DKD development and progression.
(§1) Human podocyte culture. Human podocytes were cultured and differentiated as previously described and serum starved in 0.2% FBS prior to experiments. When patient sera were utilized, starved cells were exposed to 4% patient sera for 24 hours. For insulin treatment experiments, 100 nmol insulin was added to the culture medium for 15 minutes after exposure to patient sera.
Immunofluorescence staining. […] Fluorescence detection was performed using Alexa Fluor secondary antibodies (Invitrogen). For cholesterol determination, filipin (Sigma) staining was performed as described. F-actin was visualized by Rhodamine Phalloidin (Invitrogen). Two hundred consecutive cells per condition were studied. Slides were prepared with DAPI enriched mounting media (Vectashield) and analyzed by confocal microscopy.

human podocytes [2] = assay: Determination of cholesterol content in podocytes exposed to patient sera; assay type: cell-based; conditions: DKD+ treated podocytes, 5 mM CD pretreatment 1 hour
Description: Human podocyte culture. Human podocytes were cultured and differentiated as previously described and serum starved in 0.2% FBS prior to experiments. When patient sera were utilized, starved cells were exposed to 4% patient sera for 24 hours. For insulin treatment experiments, 100 nmol insulin was added to the culture medium for 15 minutes after exposure to patient sera. […] Determination of cholesterol content. Esterified cholesterol was determined as difference between total and free cholesterol using an enzymatic assay and normalized to cell protein content. The cellular content of lipid droplets was determined using Oil red O (ORO). Cells were fixed and permeabilized as described above, washed in PBS and in 60% isopropanol, followed by incubation in ORO (0.5% ORO in isopropanol, 1:3 diluted) for 15 min at room temperature and counterstaining with hematoxylin for 1 min. The fraction of ORO positive cells over two hundred consecutive cells was calculated by bright field microscopy.

human podocytes [3] = assay: Apoptosis analysis (Caspase-3 colorimetric assay) in podocytes exposed to patient sera; assay type: cell-based; conditions: DKD+ treated podocytes, 5 mM CD pretreatment 1 hour
Description: as §1, with “sera. […] Apoptosis analysis. Apoptosis was assessed using the Caspase-3/CPP32 Colorimetric Assay kit (Biovision) according to the manufacturer's description. Caspase 3 activity was normalized to cell number and expressed as fold change to controls.” for “sera.”

human podocytes [4] = assay: Western blotting and luminex (insulin stimulated AKT phosphorylation, MyD88) in podocytes exposed to patient sera; assay type: cell-based; conditions: DKD+ treated podocytes, 5 mM CD pretreatment 1 hour
Description: Human podocyte culture. Human podocytes were cultured and differentiated as previously described and serum starved in 0.2% FBS prior to experiments. When patient sera were utilized, starved cells were exposed to 4% patient sera for 24 hours. For insulin treatment experiments, 100 nmol insulin was added to the culture medium for 15 minutes after exposure to patient sera. […] Western blotting and luminex. Cell lysate collection and Western blotting was performed as previously described. The following primary antibodies were used: rabbit-polyclonal-anti-MyD88 (Cell Signaling), rabbit-polyclonal-anti-phosphorylated ([…]) or anti-total-AKT (Cell Signaling), mouse-monoclonal-anti-rhoA (Santa Cruz), or mouse-monoclonal-anti-Gapdh (6C5, Calbiochem) antibody. Secondary Anti-mouse-IgG-HRP or and Anti-rabbit-IgG-HRP Conjugate (Promega) were used. Image acquisition was performed using the chemiluminescent imager SRX-101A (Konica Minolta medical imaging, USA) and band densitometry was analyzed using ImageJ software (NIH). Alternatively, phosphorylated/total AKT was quantified using luminex technology as previously reported.

BTBR ob/ob mice [5] = assay: BTBR ob/ob mice treatment: diabetic kidney disease readouts; assay type: in vivo
Description: (§2) BTBR ob/ob mice treatment and analysis. BTBR ob/ob mice were purchased from Jackson Laboratories. Mice were injected subcutaneously with 4,000 mg/kg CD or saline as reported previously, three times per week for 5 months. Urine was collected, and body weight and glycemia (OneTouch) were determined weekly. Six mice per group were analyzed. All animal procedures were approved by the Institutional Animal Care and Use Committee (IACUC). After isotonic saline perfusion, the right kidney was removed for cholesterol content determination and mRNA extraction. One left kidney pole was embedded in OCT, a second pole fixed in 4% PFA and paraffin-embedded for histological analysis. Blood samples were analyzed for CBC, lipid panel, AST, ALT, Alkaline Phosphatase, GGT, and BUN in the Comparative Laboratory Core Facility, University of Miami. Serum creatinine was determined by tandem mass spectrometry at the UAB-UCSD O'Brien Core Center, University of Alabama at Birmingham, using the methods previously described. The urine albumin content was measured by ELISA (Bethyl Laboratories). Urinary creatinine was assessed by an assay based on the Jaffe method (Stanbio). Values are expressed as μg albumin/mg creatinine. Fasting plasma insulin was determined by ELISA (Mercodia, SW). Intraperitoneal glucose tolerance tests (IPGTT) were performed 4 months after treatment; after 5-hr fasting, blood glucose was recorded at baseline and up to 180 minutes after a glucose bolus (1.5 g/kg). For insulin sensitivity, glycemia was monitored at baseline and up to 150 minutes after intraperitoneal injection of 4 mU/g of short acting insulin. Human islets from four different isolations were pretreated with 0.5 mM CD for one hour and perfused as described before to determine insulin release in response to glucose and KCl.
Histology, assessment of mesangial expansion and glomerular surface area. Periodic acid-Shiff's (PAS) staining of 4 μm thick tissue sections was performed. Twenty glomeruli per section were analyzed for mesangial expansion by semiquantitative analysis (scale 0-4) performed by two blinded independent investigators. The glomerular surface was delineated in each encountered glomerulus and the mean surface area calculated as described.

ABCA1 [6] = assay: ABCA1 mRNA expression in kidney cortex of BTBR ob/ob mice; assay type: in vivo; conditions: BTBR ob/ob mice, 4,000 mg/kg s.c. three times per week, 5 months
Description: Quantitative Real Time PCR (QRT-PCR). Podocyte RNA was extracted using the RNAeasy Mini Kit (Qiagen). Reverse transcription was performed using the high-capacity cDNA reverse transcriptase kit (Applied Biosystems) according to the manufacturer's protocols. QRT-PCR was performed in the StepOnePlus real-time PCR system (Applied Biosystems) using the PerfeCTa® SYBR® Green FastMix (Quanta Biosciences). Relative gene expression was determined as 2^-ΔCt, with ΔCt being the difference between the cycle threshold (Ct) value of the target gene and Gapdh. For semi-quantitative expression analysis, PCR was performed and analyzed by gel electrophoresis. Amplification product intensities were determined using ImageJ software (NIH), values were normalized and expressed as fold changes in gene expression over GAPDH. The following primers were used: hABCA1-F, […]; hABCA1-R, […]; hLDL-R-F, […]; hLDL-R-R, […]; hHMG-CoA-R-F, […]; hHMG-CoA-R-R, […]; hGAPDH-F, […]; hGAPDH-R, Hs_ABCA1-SG QuantiTect-Primer-Assay (Qiagen); mAbca1-F, […]; mAbca1-R, […].
BTBR ob/ob mice treatment and analysis. […] Urine was collected, and body weight and glycemia (OneTouch) were determined weekly. Six mice per group were analyzed. […] Blood samples were analyzed for CBC, lipid panel, AST, ALT, Alkaline Phosphatase, GGT, and BUN in the Comparative Laboratory Core Facility, University of Miami. […]

BTBR ob/ob mice [7] = assay: BTBR ob/ob mice treatment: body weight, glycemia, insulin, IPGTT, insulin sensitivity; assay type: in vivo
Description: as §2

ABCA1 [8] = assay: ABCA1 immunofluorescence staining in pancreata of BTBR mice; assay type: in vivo
From the text: IPGTT performed one week prior to sacrifice were improved in CD treated homozygous mice when compared to homozygous controls. As improvement was observed despite a similar insulin sensitivity test, we analyzed the effect of low dose CD on the function of four different preparations of human islet cells. […] To determine whether the beneficial effect of CD on islet cell function was associated with the modulation of ABCA1 expression in pancreatic islets, we performed immunofluorescence staining using a rabbit polyclonal ABCA1 antibody (gift from Dr. A. Mendez) and determined ABCA1 expression as mean fluorescence intensity per pancreata analyzed. […] As hemolytic anemia and liver toxicity have been described while using other cyclodextrin derivatives in rodents and humans, and because we administered high dose CD for a period of 5 months, we studied hemoglobin, aspartate aminotransferase (AST), alanine transaminase (ALT) and gamma-glutamyltransferase (GGT) at sacrifice.

human islets = assay: Human islet perifusion: glucose stimulated insulin release; assay type: cell-based; conditions: human islets from four preparations, pretreated with 0.5 mM CD for one hour, vs untreated
Description: as §2, with “Intraperitoneal glucose tolerance tests (IPGTT) were performed 4 months after treatment; after 5-hr fasting, blood glucose was recorded at baseline and up to 180 minutes after a glucose bolus (1.5 g/kg). For insulin sensitivity, glycemia was monitored at baseline and up to 150 minutes after intraperitoneal injection of 4 mU/g of short acting insulin. Human islets from four different isolations were pretreated with 0.5 mM CD for one hour and perfused as described before to determine insulin release in response to glucose and KCl.” left out

BTBR mice = assay: Safety of chronic subcutaneous CD in BTBR mice (blood analysis at sacrifice); assay type: in vivo; conditions: at sacrifice, 4,000 mg/kg s.c. three times per week for 5 months
Description: as §2
FIG. 3 is a table illustrating the safety of CD in 4-week old BTBR mice treated following subcutaneous administration of three weekly injections of hydroxypropyl-β-cyclodextrin (CD, 4,000 mg/kg body weight) for five months.

[9] = intravenous infusions; cited from earlier work
[10] = podocytes pretreated 1 hour with 5 mM CD, exposed to 4% DKD+ sera 24 hours
[11] = serum at sacrifice, 4,000 mg/kg s.c. three times per week, 5 months
[12] = BTBR ob/ob mice, 4,000 mg/kg s.c. three times per week, after four months of treatment
[13] = sera collected at sacrifice, BTBR ob/ob mice, 4,000 mg/kg s.c. three times per week

Compound: CC(O)COC[C@H]1O[C@@H]2O[C@H]3[C@H](O)[C@@H](O)[C@@H](O[C@H]4[C@H](O)[C@@H](O)[C@@H](O[C@H]5[C@H](O)[C@@H](O)[C@@H](O[C@H]6[C@H](O)[C@@H](O)[C@@H](O[C@H]7[C@H](O)[C@@H](O)[C@@H](O[C@H]8[C@H](O)[C@@H](O)[C@@H](O[C@H]1[C@H](O)[C@H]2O)O[C@@H]8COCC(C)O)O[C@@H]7COCC(C)O)O[C@@H]6COCC(C)O)O[C@@H]5COCC(C)O)O[C@@H]4COCC(C)O)O[C@@H]3COCC(C)O (stereo partly drawn) [CD, hydroxypropyl-β-cyclodextrin]
- cell blebbing (human podocytes [1]; human podocytes exposed to sera of patients with diabetic kidney disease, CD): prevents
- localization of phosphorylated caveolin to focal adhesion sites (human podocytes [1]; [10]): preserved the localization of phosphorylated caveolin to focal adhesion sites
- number of filipin-positive cells (human podocytes [1]; [10]): reduced the number of filipin-positive cells
- podocyte injury observed in vitro after exposure to patient sera (human podocytes [1]; pretreated 1 hour with 5 mM CD or 1 μM simvastatin): prevented podocyte injury
- accumulation of esterified cholesterol (human podocytes [2]): prevented the accumulation of total and esterified cholesterol
- accumulation of total cholesterol (human podocytes [2]): prevented the accumulation of total and esterified cholesterol
- DKD+ induced apoptosis (cleaved Caspase 3) (human podocytes [3]): prevented DKD+ induced apoptosis
- DKD+ induced MyD88 expression (human podocytes [4]): prevented
- DKD+ induced insulin resistance (insulin stimulated AKT phosphorylation) (human podocytes [4]; 100 nmol insulin 15 minutes): prevented
- total cholesterol in the kidney cortex (BTBR ob/ob mice [5]; BTBR ob/ob mice, 4,000 mg/kg s.c. three times per week, 5 months): significant reduction of total cholesterol
- albumin/creatinine ratios in morning spot urine (BTBR ob/ob mice [5]; BTBR ob/ob mice, 4,000 mg/kg s.c. three times per week, at 3 months, vs untreated, p<0.001): significant down-regulation
- kidney weight (BTBR ob/ob mice [5]; BTBR ob/ob mice, 4,000 mg/kg s.c. three times per week, at sacrifice (5 months)): reduction of kidney weight
- albumin/creatinine ratios in morning spot urine (BTBR ob/ob mice [5]; BTBR ob/ob mice, 4,000 mg/kg s.c. three times per week, until sacrifice (5 months)): decrease persisted until sacrifice
- glomerular surface area (BTBR ob/ob mice [5]; PAS stained kidney sections, five months of treatment): without affecting the glomerular surface area
- mesangial expansion (BTBR ob/ob mice [5]; PAS stained kidney sections, semiquantitative scale 0-4, five months of treatment): reduction of mesangial expansion
- albumin excretion rates (BTBR ob/ob mice [5]; homozygous BTBR ob/ob mice, 4,000 mg/kg s.c. three times per week, up to 2 months after treatment initiation): no changes
- Blood urea nitrogen (BUN) (BTBR ob/ob mice [5]; [11]): not significantly affected
- serum creatinine (BTBR ob/ob mice [5]; [11]): not significantly affected
- ABCA1 mRNA expression in the kidney cortex (ABCA1 [6]): did not affect
- body weight (BTBR ob/ob mice [7]; [12]): reduction of body weight
- random glycemia (BTBR ob/ob mice [7]; [12]): improvement of random glycemia
- sensitivity to a single dose of short acting insulin (BTBR ob/ob mice [7]; BTBR ob/ob mice, insulin 4 mU/g intraperitoneal): did not affect the sensitivity
- IPGTT (glucose tolerance) (BTBR ob/ob mice [7]; CD treated homozygous mice vs homozygous controls, one week prior to sacrifice, glucose bolus 1.5 g/kg): improved
- fasting plasma glucose (BTBR ob/ob mice [7]; [13]): significant improvement
- fasting plasma insulin (BTBR ob/ob mice [7]; [13]): significant improvement
- ABCA1 expression in pancreata (mean fluorescence intensity) (ABCA1 [8]; heterozygous BTBR ob/+ mice, p<0.01): significantly increased ABCA1 expression
- ABCA1 expression in pancreata (mean fluorescence intensity) (ABCA1 [8]; homozygous BTBR ob/ob mice, p<0.001): significantly increased ABCA1 expression
- glucose stimulated insulin release (human islets): significant improvement in glucose stimulated insulin release
- alanine transaminase (ALT) (BTBR mice): No abnormalities
- aspartate aminotransferase (AST) (BTBR mice): No abnormalities
- gamma-glutamyltransferase (GGT) (BTBR mice): No abnormalities
- hemoglobin (BTBR mice): No abnormalities
- crossing from the bloodstream into the brain [9]: does not cross from the bloodstream into the brain
